# From patent publication US20240270740A1, “INHIBITORS OF CYCLIC GMP-AMP SYNTHASE AND USES THEREOF” (Ventus Therapeutics U.S., Inc., priority 2022, published 2024)
# Target: hcGAS (Homo sapiens, UniProt Q8N884)
# Assay: hcGAS LCMS assay (direct measurement of cGAMP production)
# Type: biochemical
# Settings: 0.5 nM hcGAS, 100 μM ATP, 100 μM GTP, 25 nM dsDNA, 4 h incubation
# Procedure: cGAS catalyzes the cyclization of ATP and GTP to produce cGAMP, which is the activating ligand of STING. Human cGAS (hcGAS) inhibition can thus be quantified by measuring how much cGAMP is formed either indirectly, by monitoring ATP-depletion as in the hcGAS Kinase-Glo assay (as described below), or directly, such as using the hcGAS LCMS assay (as described below).
# Compounds were tested for their h-cGAS inhibition activity using direct measurement of cGAMP production by LC/MS. Briefly, compounds were incubated with enzyme and substrates for 4 hours (see Table C), before the reaction was stopped with 3 volumes of 70/30 Acetonitrile/H2O mix containing 0.15 mM cGAMP-^13C10^5N5 as internal standard and mixed for […]. After centrifugation (3700 rpm, 10 min, 10° Celsius), […] of each reaction was collected and mixed to equal volume of Acetonitrile. Samples were then analyzed on Qexective (Column: XBridge BEH Amide Column, 130 Å, 3.5 μm, 3 mm×50 mm, Mobile phase A: 10 mM Ammonium acetate in 95/5% H2O/Acetonitrile (0.5% DMSO), Mobile phase B: Acetonitrile (0.5% DMSO).
# The results of the assay, expressed as IC50 values, are reported in Table D with the following designations: A represents an IC50 value<0.005 μM; B represents an IC50 value≥0.005 μM and <0.02 μM, C represents an IC50 value≥0.02 μM and <0.06 μM; D represents an IC50 value≥0.06 and <0.2 μM; E represents an IC50 value≥0.2.
# Chain of hcGAS (Q8N884 whole entry): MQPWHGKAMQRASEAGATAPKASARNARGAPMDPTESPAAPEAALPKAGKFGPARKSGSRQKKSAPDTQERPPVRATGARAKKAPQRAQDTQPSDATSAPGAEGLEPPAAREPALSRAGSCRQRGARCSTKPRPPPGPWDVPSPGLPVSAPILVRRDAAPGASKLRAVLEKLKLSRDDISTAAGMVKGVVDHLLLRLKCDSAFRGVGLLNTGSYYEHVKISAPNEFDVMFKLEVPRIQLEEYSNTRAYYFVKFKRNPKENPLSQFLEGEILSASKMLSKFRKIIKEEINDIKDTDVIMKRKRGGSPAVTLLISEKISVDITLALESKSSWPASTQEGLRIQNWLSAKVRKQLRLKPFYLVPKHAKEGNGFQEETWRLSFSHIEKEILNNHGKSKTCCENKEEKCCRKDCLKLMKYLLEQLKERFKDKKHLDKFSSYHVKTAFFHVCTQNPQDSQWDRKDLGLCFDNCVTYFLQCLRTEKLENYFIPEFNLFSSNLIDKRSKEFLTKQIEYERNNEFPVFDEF
row,SMILES,IC50
1,"COCC1(Nc2cc(C(=O)Nc3nnc(-n4nccc4C)s3)oc(=O)c2OC)CCCC1 [Compound 152, 3-methoxy-4-((1-(methoxymethyl)cyclopentyl)amino)-N-(5-(5-methyl-1H-pyrazol-1-yl)-1,3,4-thiadiazol-2-yl)-2-oxo-2H-pyran-6-carboxamide]",5 to 20 nM
2,"COC[C@H](Nc1cc(C(=O)Nc2nnc(-c3c(Cl)ccn3C)s2)oc(=O)c1OC)c1ccccc1 [Compound 213, (R)-N-(5-(3-chloro-1-methyl-1H-pyrrol-2-yl)-1,3,4-thiadiazol-2-yl)-3-methoxy-4-((2-methoxy-1-phenylethyl)amino)-2-oxo-2H-pyran-6-carboxamide]",< 5 nM
3,"COC[C@@H]1CCC[C@@H]1Nc1cc(C(=O)Nc2nnc(-n3nccc3C)s2)oc(=O)c1OC (single isomer, unassigned) [Compound 79*]",60 to 200 nM
4,"COc1c(NCCOCC(F)F)cc(C(=O)Nc2nnc(-n3nccc3C)s2)oc1=O [Compound 17, 4-((2-(2,2-difluoroethoxy)ethyl)amino)-3-methoxy-N-(5-(5-methyl-1H-pyrazol-1-yl)-1,3,4-thiadiazol-2-yl)-2-oxo-2H-pyran-6-carboxamide]",20 to 60 nM
5,"CC[C@H](COC)Nc1cc(C(=O)Nc2nnc(-n3nccc3C)s2)oc(=O)c1OC (single isomer, unassigned) [191*]",20 to 60 nM
6,"COC[C@H]1[C@H](OC)CCN1c1cc(C(=O)Nc2nnc(-n3nccc3C)s2)oc(=O)c1OC [Compound 211, 3-methoxy-4-((2S,3R)-3-methoxy-2-(methoxymethyl)pyrrolidin-1-yl)-N-(5-(5-methyl-1H-pyrazol-1-yl)-1,3,4-thiadiazol-2-yl)-2-oxo-2H-pyran-6-carboxamide]",5 to 20 nM
7,"COC[C@@]1(Nc2cc(C(=O)Nc3nnc(-n4nccc4C)s3)oc(=O)c2OC)CCOC1 (single isomer, unassigned) [Compound 100*]",5 to 20 nM
8,"COc1c(N[C@H]2CC[C@H]2OCC(F)F)cc(C(=O)Nc2nnc(-n3nccc3C)s2)oc1=O (single isomer, unassigned) [172*]",5 to 20 nM
9,"COC[C@H](Nc1cc(C(=O)Nc2nnc(-n3nccc3C)s2)oc(=O)c1OC)c1ccccc1OC (single isomer, unassigned) [198*]",20 to 60 nM
10,"COc1c(N[C@@H]2CC[C@@H]2OC)cc(C(=O)Nc2nnc(-n3nccc3C)s2)oc1=O (single isomer, unassigned) [122*]",5 to 20 nM
11,"COc1c(N(CCO)CCO)cc(C(=O)Nc2nnc(-n3nccc3C)s2)oc1=O (single isomer, unassigned) [Compound 158, 4-(bis(2-hydroxyethyl)amino)-3-methoxy-N-(5-(5-methyl-1H-pyrazol-1-yl)-1,3,4-thiadiazol-2-yl)-2-oxo-2H-pyran-6-carboxamide]",60 to 200 nM
12,"COCCNc1cc(C(=O)Nc2nnc(-n3nccc3N)s2)oc(=O)c1OC [Compound 205, N-(5-(5-amino-1H-pyrazol-1-yl)-1,3,4-thiadiazol-2-yl)-3-methoxy-4-((2-methoxyethyl)amino)-2-oxo-2H-pyran-6-carboxamide]",5 to 20 nM
13,"COc1c(NCCOC(F)F)cc(C(=O)Nc2nnc(-n3nccc3C)s2)oc1=O [Compound 208, 4-((2-(difluoromethoxy)ethyl)amino)-3-methoxy-N-(5-(5-methyl-1H-pyrazol-1-yl)-1,3,4-thiadiazol-2-yl)-2-oxo-2H-pyran-6-carboxamide]",5 to 20 nM
14,"COc1c(N[C@@H]2CCC[C@@H]2OCC(F)F)cc(C(=O)Nc2nnc(-n3nccc3C)s2)oc1=O [Compound 171, 4-(((1R, 2S)-2-(2,2-difluoroethoxy)cyclopentyl)amino)-3-methoxy-N-(5-(5-methyl-1H-pyrazol-1-yl)-1,3,4-thiadiazol-2-yl)-2-oxo-2H-pyran-6-carboxamide]",5 to 20 nM
15,"COC[C@@H](Cc1ccccc1)Nc1cc(C(=O)Nc2nnc(-n3nccc3C)s2)oc(=O)c1OC [Compound 170, (R)-3-methoxy-4-((1-methoxy-3-phenylpropan-2-yl)amino)-N-(5-(5-methyl-1H-pyrazol-1-yl)-1,3,4-thiadiazol-2-yl)-2-oxo-2H-pyran-6-carboxamide]",5 to 20 nM
